Paper PMC10447463, “Data-mining unveils structure–property–activity correlation of viral infectivity enhancing self-assembling peptides” (Nature Communications, 2023)

Tests used:
[1] = Aggregate analysis by widefield fluorescence microscopy; assay type: physicochemical
Protocol: 4 µL of 1 mg/mL peptide fibrils solution is added to a 20 µL, 50 µM ThT–solution in PBS. The mixture is incubated for 15 min at RT to allow binding of ThT dye with β–sheet rich structures. For reference PBS (4 µL) was added instead of peptide fibril solution. The samples were placed in black UV Star® 384 microliter well–plates (Greiner bio–one). Fluorescence spectra were recorded on an Infinite® M1000 PRO microplate reader (Tecan) at λem = 488 nm upon excitation at λex = 440 nm with 10 nm bandwidths and multiple reads per well (3×3). Measurements were repeated in triplicates and averaged with standard deviation. A peptide fibril was considered as ThT-active if the fluorescence intensity was at least twice as strong compared to the control (PBS containing 10% DMSO). Zeta-Potential. For the determination of the surface charge of aggregated peptides zeta-potential measurements were conducted with a Zetasizer Nano ZS, Malvern Instruments. Unless stated otherwise the peptides were dissolved from DMSO (10 mg/mL) in PBS (pH 7.4) to concentration of 1 mg/mL and incubated for 1d at RT. Just before the measurement the 60 µL of the peptides were further diluted in 600 µL KCl (aq, 1 mM) in a 1 mL disposable folded capillary cells (DTS–1060, Zetasizer Nano series, Malvern). The zeta potential of the peptides was derived from the electrophoretic mobility based on the Smoluchowski formula. All measurements were averaged over two individually performed experiments and conducted in triplicates for each sample. Aggregate analysis. […] Furthermore, fluorescence microscopy was conducted by staining 1 µL preformed fibrils (1 mg/mL) with 9 µL ThT (50 µM). Brightfield microscopy was performed simultaneously to evaluate aggregation also for non ThT-active fibrils. The measurements were performed on a Leica DMi8 microscope with 10x air objective and equipped with a Leica MC170 HD camera with a filter setting λem = 527/30 nm upon excitation at λex = 480/40 nm) and processed with the Leica LASX software. To quantify size and number of microscopic aggregation of particles > 10 µm^2 at least 3 independently measured images were analyzed via the 3D object counter analysis tool of ImageJ, v 1.53f51. Sum–frequency generation. The SFG experiments were carried out with a femtosecond Ti: Sapphire amplified laser system (Spitfire Ace, Spectra–Physics, 800 nm, 40 fs, 1 kHz) with 5 W output power. We used 2 W to pump an optical parametric amplifier (TOPAS, light conversion) with a non–collinear difference frequency generation stage to generate broadband IR pulses. Another 1 W of the laser output passed through an etalon to generate narrowband visible pulses (10 cm^-1). The incident angles of the visible and IR beams were 36° and 41° with respect to the surface normal, respectively. The visible (13 µJ) and IR (5 µJ) pulses were overlapped spatially and temporally at the sample position. Subsequently, the generated SFG pulse was guided into a spectrograph (Acton SP 300i, Princeton Instruments), and detected with an EMCCD (Newton, Andor Technology). To avoid IR absorption of water vapor, we purged N2 for the measurement. All spectra were collected in the ssp (denoting s-, s- and p-polarized SFG, visible and IR, respectively) polarization combination. The spectra were normalized to the non–resonant signal taken from z–cut quartz after subtracting a background spectrum.
Table S8 Summary of aggregate analysis from widefield microscopy measurements (Figure S32). The Number of aggregated peptides, the median size area, average size area
and the cumulative total size area of all particles (> 10 µm2) in an area of 1330 µm × 1330 µm was determined via automated 3D object counting (ImageJ) in triplicate
measurements (Std. Dev.).
Aggregate Std. Dev. Std. Dev. Std. Dev. Std. Dev.
Sequence Abs. Inf. / Std. Dev. / Count Rate / Std. Dev. Number Aggregate Median Area Median Area Average Area Average Area Total Area/ Total Area/ […]

[2] = Turbidity, derived count rate of scattered light; assay type: physicochemical; details: for Count Rate: derived count rate of scattered light (turbidity); for Log10 Count Rate: turbidity, derived count rate of scattered light, data of Figure 2D
[3] = Fig S8 panels A, C, 3 fields of 1330 µm x 1330 µm
[4] = Fig S8 panels B, D, average aggregate area, 3 fields of 1330 µm x 1330 µm
[5] = Fig S8 panels B, D, median aggregate area, 3 fields of 1330 µm x 1330 µm
[6] = Fig S8 panels B, D, 3 fields of 1330 µm x 1330 µm
[7] = Fig S8 panels B, D, widefield fluorescence microscopy, 3 fields of 1330 µm x 1330 µm

Row | Substance | Avg Area in 3 *(1330 µm *1330 µm) ([1]; Fig S8 panels A, C) | Log 10 Number of aggregates in 3 * (1330 µm *1330 µm) ([1]; Fig S8 panels A, C) | Median Area in 3 * (1330 µm *1330 µm) ([1]; Fig S8 panels A, C) | log Avg Area in 3 * ( (1330 µm *1330 µm)) ([1]; Fig S8 panels A, C) | log Median Area in 3 * ( (1330 µm *1330 µm)) ([1]; Fig S8 panels A, C) | log Total Area of all particles in 3 * (1330 µm *1330 µm) ([1]; Fig S8 panels A, C) | Number of aggregates in 3 * (1330 µm *1330 µm) [1, 3] | Avg Area in 3 *(1330 µm *1330 µm) [1, 4] | Median Area in 3 * (1330 µm *1330 µm) [1, 5] | Total Area of all particles in 3 * (1330 µm *1330 µm) [1, 6] | Number of aggregates in 3 * (1330 µm *1330 µm) [1, 7] | Count Rate [2] | Log10 Count Rate [2]
1 | CHLHLQL [CN9] | 330.1 | 1.5563 | 35.7 | 2.5187 | 1.553 | 4.075 | 36 | 330.1 | 35.7 | 11885.21533 | 36 | – | –
2 | CKFKFQFW [TM72] | 28.12 | 2.713 | 16.689 | 1.449 | 1.222 | 4.162 | 517 | 28.12 | 16.689 | 14537.202 | 517 | – | –
3 | CKFKFQFNM [BL3] | 19.89 | 2.2313 | 11.55 | 1.299 | 1.063 | 3.53 | 170.3 | 19.89 | 11.55 | 3388 | 170.3 | – | –
4 | CKIKIQI [MG3b] | 58.72 | 2.501 | 16.48 | 1.7688 | 1.2169 | 4.27 | 317 | 58.72 | 16.48 | 18614.711 | 317 | – | –
5 | CKIKIQINMWQ | – | – | – | – | – | – | – | – | – | – | – | 1881 | 3.274
6 | QCKFKQFFNMWQ [CK10] | – | – | – | – | – | – | – | 30.56 | 15.07 | 55430.97933 | 1814 | – | –
7 | CKIKQII [MG4a] | 110.6 | 1.8789 | 36.476 | 2.044 | 1.562 | 3.923 | 75.67 | 110.6 | 36.476 | 8372.136 | 75.67 | – | –
8 | CQFQFQF [QBL4] | 73.07 | 1.6596 | 15.07 | 1.864 | 1.178 | 3.523 | 45.67 | 73.07 | 15.07 | 3337 | 45.67 | – | –
9 | RGDKIKIQI | – | – | – | – | – | – | – | – | – | – | – | 298.1 | 2.474
